ChEMBL document CHEMBL1152405, “Bis-anthracenyl isoxazolyl amides have enhanced anticancer activity” (Bioorg Med Chem Lett, 2009)

What was measured:
Format in all cases: functional
BT-549 = test: Growth inhibition of human BT549 cells at 10 uM after 24 hrs by MTT assay relative to control; set-up: scale not given: the % may be the effect or the level left
MCF7 = test: Growth inhibition of human MCF7 cells at 10 uM after 24 hrs by MTT assay relative to control; set-up: scale not given: the % may be the effect or the level left
SK-OV-3 = test: Growth inhibition of human SKOV3 cells at 10 uM after 24 hrs by MTT assay relative to control; set-up: scale not given: the % may be the effect or the level left
CAKI-1 = test: Growth inhibition of human Caki1 cells at 10 uM after 24 hrs by MTT assay relative to control; set-up: scale not given: the % may be the effect or the level left
SK-MEL-5 = test: Growth inhibition of human SK-MEL-5 cells at 10 uM after 24 hrs by MTT assay relative to control; set-up: scale not given: the % may be the effect or the level left
SF-295 = test: Growth inhibition of human SF295 cells at 10 uM after 24 hrs by MTT assay relative to control; set-up: scale not given: the % may be the effect or the level left
HCC 2998 = test: Growth inhibition of human HCC2998 cells after 24 hrs by MTT assay; conditions: HCC 2998, 24 h
SW-620 = test: Growth inhibition of human SW620 cells after 24 hrs by MTT assay; conditions: SW-620, 24 h
LOX IMVI = test: Growth inhibition of human LOXIMVI cells after 24 hrs by MTT assay
SK-MEL-28 = test: Growth inhibition of human SK-MEL-28 cells after 24 hrs by MTT assay; conditions: SK-MEL-28, 24 h
DU-145 = test: Growth inhibition of human DU145 cells after 24 hrs by MTT assay; conditions: DU-145, 24 h
MDA-MB-231 = test: Growth inhibition of human MDA-MB-231 cells after 24 hrs by MTT assay; conditions: MDA-MB-231, 24 h
[1] = read-out: LC50 (the source's name)
[2] = read-out: pLC50 (the source's name) (converted)

With `Cc1onc(-c2c3ccccc3c(Cl)c3ccccc23)c1C(=O)Nc1cc(C(=O)NCCCN(C)CCCNC(=O)c2cc(NC(=O)c3c(-c4c5ccccc5c(Cl)c5ccccc45)noc3C)cn2C)n(C)c1` the Activity (BT-549) was -49.26%, the Activity (MCF7) was -100% and the Activity (SK-OV-3) was -100%. The Activity (CAKI-1) was -74.88%, the Activity (SK-MEL-5) was -100% and the Activity (SF-295) was -75.66%. For the same compound, the TGI (HCC 2998) was 2940 nM, the GI50 (HCC 2998; read-out: GI50) was 1590 nM and the CC50 (HCC 2998; [1]) was 5.42 µM. It also gave a GI50 (HCC 2998; read-out: pGI50 (converted)) of 1580 nM, a CC50 (HCC 2998; [2]) of 5.37 µM and a TGI (SW-620) of 2750 nM. For the same compound, the GI50 (SW-620; read-out: GI50) was 1440 nM, the CC50 (SW-620; [1]) was 5.24 µM and the GI50 (SW-620; read-out: pGI50 (converted)) was 1450 nM. The CC50 (SW-620; [2]) was 5.25 µM, the TGI (LOX IMVI) was 2960 nM and the GI50 (LOX IMVI; read-out: GI50) was 1380 nM. It also gave a GI50 (LOX IMVI; read-out: pGI50 (converted)) of 1380 nM, a TGI (SK-MEL-28) of 2980 nM and a GI50 (SK-MEL-28; read-out: GI50) of 1630 nM. The CC50 (SK-MEL-28; [1]) was 5.46 µM, the GI50 (SK-MEL-28; read-out: pGI50 (converted)) was 1620 nM and the CC50 (SK-MEL-28; [2]) was 5.5 µM. For the same compound, the TGI (DU-145) was 2600 nM, the GI50 (DU-145; read-out: GI50) was 1330 nM and the CC50 (DU-145; [1]) was 5.1 µM. For the same compound, the GI50 (DU-145; read-out: pGI50 (converted)) was 1320 nM, the CC50 (DU-145; [2]) was 5.13 µM and the TGI (MDA-MB-231) was 2760 nM. For the same compound, the GI50 (MDA-MB-231; read-out: GI50) was 1370 nM and the GI50 (MDA-MB-231; read-out: pGI50 (converted)) was 1380 nM.
